The values that follow come from patent US20090117140A1, “Human papilloma virus dominant CD4 T cell epitopes and uses thereof” (priority 2007, published 2009).

For assay [1], the system named is Human Leukocyte Antigen molecule. As to conditions: from the literature; cited from earlier work.
For assay [2], the system named is E7 56-70 specific T-cell clones from subject 15-04. The assay can be described thus: Enzyme-linked immunospot assays defining the core sequence of the CD4 T-cell epitope. As to conditions: for Response (spot-forming units) among the six overlapping 10-mer peptides: FIG. 3A, three of the four T-cell clones tested; for Response (spot-forming units) among the six overlapping 10-mer peptides / Number of spot-forming units, 15-mer, 11-mer, 10-mer and 9-mer peptides compared: peptide concentration 10 μM; for Number of spot-forming units, 15-mer, 11-mer, 10-mer and 9-mer peptides compared: FIG. 3B; for Number of spot-forming units with serially diluted peptides: FIG. 3C, clones #45 and #207.

The subject of assay [3] is Human Leukocyte Antigen class II molecule. Description: Enzyme-linked immunospot assay identifying the restricting Human Leukocyte Antigen molecule. As to conditions: allogeneic B-lymphoblastoid cell line cells sharing class II molecules with subject 15-04, E7 56-70 peptide used in the assay.
Assay [4] concerns T-cell clones from subject 15-04. Description: Enzyme-linked immunospot assay for exogenous presentation (pulsed autologous dendritic cells). As to conditions: FIG. 2B; clones #11, #207, #304; 2.5×10^3 dendritic cells per well.

Entries after “also recorded” stand apart in the source; their conditions may differ.

With “HPV 16 E7 71-85: previously described HPV 16 E7 epitope, 15 amino acids long (STHVDIRTLEDLLMG; UniProt P03129 71-85, looked up, fragment)”, the “Restriction element of described epitope” value in assay [1] is reported as “Human Leukocyte Antigen-DQB1*02”.
Turning to “LEDLLMGTL (E7 79-87 control peptide from immunodominant epitope region of Human Papilloma Virus 16 E7 protein) [HPV 16 E7 79-87]”, the “Restriction element of described epitope” value in assay [1] is recorded as “Human Leukocyte Antigen-B69”.
“E7 50-62: previously described Human Papilloma virus-specific CD4 T-cell epitope of the E7 protein (AHYNIVTFCCKCD; UniProt P03129 50-62, looked up, fragment)”: the “Restriction element of described epitope” value in assay [1] is recorded as “Human Leukocyte Antigen-DR15”.
In the case of “CCKCDSTLRL (E7 58-67 peptide from immunodominant epitope region of Human Papilloma Virus 16 E7 protein)”, in assay [2], the “Response (spot-forming units) among the six overlapping 10-mer peptides” value was “strongest response; also recorded: highest number of spot-forming units”; the “Number of spot-forming units, 15-mer, 11-mer, 10-mer and 9-mer peptides compared” value (shortened to “Number … 10-mer and 9-mer peptides compared”) is on record as “Equally large numbers of spot-forming units; also recorded: equally high number of spot-forming units”; the “Number of spot-forming units with serially diluted peptides” value (shortened to “Number … with serially diluted peptides”) is “equivalent numbers of spot forming units; also recorded: equivalent numbers of spot-forming units”.
Regarding “E7 43-77: previously described Human Papilloma virus-specific CD4 T-cell epitope of the E7 protein (GQAEPDRAHYNIVTFCCKCDSTLRLCVQSTHVDIR; UniProt P03129 43-77, looked up, fragment)”, in assay [1], the “Restriction element of described epitope” value is “Human Leukocyte Antigen-DR3”.
As for “E7 60-68: 9-mer peptide of HPV 16 E7 contained in the 11-mer E7 58-68 (KCDSTLRLC; UniProt P03129 60-68, looked up, fragment)”, the “Number … 10-mer and 9-mer peptides compared” value in assay [2] is recorded as “negative repeatedly”.
“CCKCDSTLRLC (E7 58-68 peptide from immunodominant epitope region of Human Papilloma Virus 16 E7 protein)”: the Restriction element result was “Human Leukocyte Antigen-DR17 molecule” in assay [3], “Human Leukocyte Antigen-DR17 molecule” in assay [3] (listed as HPV 16 E7 58-68), “Human Leukocyte Antigen-DR 17 molecule” in assay [3] (listed as novel CD4 T-cell epitope) and “Human Leukocyte Antigen-DR17 molecule” in assay [3] (listed as novel HPV 16 E7 CD4 T-cell epitope). For the same molecule, the “Number … 10-mer and 9-mer peptides compared” value in assay [2] is given as “Equally large numbers of spot-forming units; also recorded: equally high number of spot-forming units”. Also, the “Number … with serially diluted peptides” value in assay [2] is given as “equivalent numbers of spot forming units; also recorded: equivalent numbers of spot-forming units”.
Regarding “E6 43-57: previously described HPV 18 E6 CD4 epitope (EVFEFAFKDLFVVYR; UniProt P06463 43-57, looked up, fragment)”, in assay [1], the “Restriction element of described epitope” value was “Human Leukocyte Antigen-DRB1*15”.
“E7 59-67: 9-mer peptide of HPV 16 E7 contained in the 11-mer E7 58-68 (CKCDSTLRL; UniProt P03129 59-67, looked up, fragment)”: in assay [2], the “Number … 10-mer and 9-mer peptides compared” value was “negative repeatedly”.
Consider “E7 35-50: previously described Human Papilloma virus-specific CD4 T-cell epitope of the E7 protein (EDEIDGPAGQAEPDRA; UniProt P03129 35-50, looked up, fragment)”, for which, in assay [1], the “Restriction element of described epitope” value is listed as “Human Leukocyte Antigen-DQ2”.
Consider “CKCDSTLRLC (E7 59-68 peptide from immunodominant epitope region of Human Papilloma Virus 16 E7 protein)”, for which, in assay [2], the “Response (spot-forming units) among the six overlapping 10-mer peptides” value is recorded as “strongest responses; also recorded: highest number of spot-forming units”; the “Number … 10-mer and 9-mer peptides compared” value is “Equally large numbers of spot-forming units; also recorded: equally high number of spot-forming units”; the “Number … with serially diluted peptides” value is reported as “equivalent numbers of spot forming units; also recorded: equivalent numbers of spot-forming units”.
“EPDRAHYNIVTFCCKCDSTLRLCVQ (E7 46-70 peptide from immunodominant epitope region of Human Papilloma Virus 16 E7 protein) [HPV type 16 E7 46-70]”: the Restriction element result in assay [3] is “Human Leukocyte Antigen major histocompatibility complex class II molecule”.
For “E6 127-141: previously described HPV 16 E6 CD4 epitope (DKKQRFHNIRGRWTG; UniProt P03126 127-141, looked up, fragment)”, the “Restriction element of described epitope” value in assay [1] is “Human Leukocyte Antigen-DRB1*01”.
In the case of “E7 61-80: previously described Human Papilloma virus-specific CD4 T-cell epitope of the E7 protein (CDSTLRLCVQSTHVDIRTLE; UniProt P03129 61-80, looked up, fragment)”, in assay [1], the “Restriction element of described epitope” value is “Human Leukocyte Antigen-DR9”.

B1: E7 protein: recombinant HPV 16 E7 protein pulsed to autologous mature dendritic cells (protein)
chain: MHGDTPTLHEYMLDLQPETTDLYCYEQLNDSSEEEDEIDGPAGQAEPDRAHYNIVTFCCKCDSTLRLCVQSTHVDIRTLEDLLMGTLGIVCPICSQKP
Consider B1, for which, in assay [4], the “Response (interferon-γ secretion) of T-cell clones to pulsed autologous dendritic cells” value was “demonstrated interferon-γ secretion; also recorded: positive responses”.
